Measured values: patent US12187728B2 (Raze Therapeutics, Inc., priority 2015, dated 2025)
pIC50: −log10 of the molar value.

Molecular target: T1, Human MTHFD2 (Homo sapiens, UniProt P13995)
T1 construct: residues 36-350 in Uniport ID P13995; His6 (N); made in house; host or cells: E. coli
T1 sequence (P13995 36-350): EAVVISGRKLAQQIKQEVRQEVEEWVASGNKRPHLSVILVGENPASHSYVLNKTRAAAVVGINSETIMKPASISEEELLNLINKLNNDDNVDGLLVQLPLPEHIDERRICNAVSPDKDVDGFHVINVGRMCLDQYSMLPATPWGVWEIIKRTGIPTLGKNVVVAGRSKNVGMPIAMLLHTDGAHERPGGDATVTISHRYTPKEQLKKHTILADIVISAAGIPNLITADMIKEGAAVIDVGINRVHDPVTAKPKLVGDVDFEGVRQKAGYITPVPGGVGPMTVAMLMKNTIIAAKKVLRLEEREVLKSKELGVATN
Test: MTHFD2 Activity Assay (dehydrogenase activity, diaphorase/resazurin coupled fluorescence)
Assay type: biochemical
Settings: inhibitory activity (IC50 and/or binding constant); 0.2 nM MTHFD2, 11 concentrations
In short: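 Steps: compound + 0.2 nM enzyme, 15 min, pH 8.0 Hepes buffer; add 70 μM CH2-THF, 1 mM NAD+, 100 μM resazurin, diaphorase; 30 min; quench with EDTA; read fluorescence. Data normalized to DMSO (100%) and no-enzyme (0%) wells.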

pIC50 | Structure (SMILES)
5.00 to 5.30 | Cn1c(Nc2ccnc([C@@H]3C[C@H]3CO)c2)nc2c1c(=O)n(Cc1ccc(Cl)c(Cl)c1)c(=O)n2C (single isomer, unassigned) [Example 338, 1-(3,4-dichlorobenzyl)-8-((2((1R,2R)-2-(hydroxymethyl)cyclopropyl)pyridin-4-yl)amino)-3,7-dimethyl-1H-purine-2,6(3H,7H)-dione or 1-(3,4-dichlorobenzyl)-8-((2-((1S,2S)-2-(hydroxymethyl)cyclopropyl)pyridin-4-yl)amino)-3,7-dimethyl-1H-purine-2,6(3H,7H)-dione]
6.00 to 8.00 | Cn1c(Nc2ccnc([C@H]3C[C@@H]3C(=O)O)c2)nc2c1c(=O)n(Cc1cc3c(Cl)cccc3[nH]1)c(=O)n2C (single isomer, unassigned) [Example 363, (1S,2S)-2-(4-((1-((4-chloro-1H-indol-2-yl)methyl)-3,7-dimethyl-2,6-dioxo-2,3,6,7-tetrahydro-1H-purin-8-yl)amino)pyridin-2-yl)cyclopropanecarboxylic acid or (1R,2R)-2-(4-((1-((4-chloro-1H-indol-2-yl)methyl)-3,7-dimethyl-2,6-dioxo-2,3,6,7-tetrahydro-1H-purin-8-yl)amino)pyridin-2-yl)cyclopropanecarboxylic acid]
6.00 to 8.00 | Cn1c(Nc2cccc([C@@H]3C[C@H]3C(=O)O)n2)nc2c1c(=O)n(Cc1cc3c(Cl)cccc3[nH]1)c(=O)n2C (single isomer, unassigned) [Example 398, (1R,2R)-2-(6-((1-((4-chloro-1H-indol-2-yl)methyl)-3,7-dimethyl-2,6-dioxo-2,3,6,7-tetrahydro-1H-purin-8-yl)amino)pyridin-2-yl)cyclopropanecarboxylic acid or (1S,2S)-2-(6-((1-((4-chloro-1H-indol-2-yl)methyl)-3,7-dimethyl-2,6-dioxo-2,3,6,7-tetrahydro-1H-purin-8-yl)amino)pyridin-2-yl)cyclopropanecarboxylic acid]
6.00 to 8.00 | C[C@H](N)c1nc2c(c(=O)n(Cc3cc4c(Cl)cccc4[nH]3)c(=O)n2C)n1C (single isomer, unassigned) [Example 435, (S)-8-(1-aminoethyl)-1-((4-chloro-1H-indol-2-yl)methyl)-3,7-dimethyl-1H-purine-2,6(3H,7H)-dione or (R)-8-(1-aminoethyl)-1-((4-chloro-1H-indol-2-yl)methyl)-3,7-dimethyl-1H-purine-2,6(3H,7H)-dione]
6.00 to 8.00 | C[C@@H](N)c1nc2c(c(=O)n(Cc3cc4c(Cl)cccc4[nH]3)c(=O)n2C)n1C (single isomer, unassigned) [Example 436, (R)-8-(1-aminoethyl)-14(4-chloro-1H-indol-2-yl)methyl)-3,7-dimethyl-1H-purine-2,6(3H,7H)-dione or (S)-8-(1-aminoethyl)-1-((4-chloro-1H-indol-2-yl)methyl)-3,7-dimethyl-1H-purine-2,6(3H,7H)-dione]
6.00 to 8.00 | Cn1c(N[C@@H]2CC[C@H](CO)C2)nc2c1c(=O)n(Cc1ccc(Cl)c(Cl)c1)c(=O)n2C (stereo in doubt) [Example 275, 1-(3,4-dichlorobenzyl)-8-((1R,3S)-3-(hydroxymethyl)cyclopentylamino)-3,7-dimethyl-1H-purine-2,6(3H,7H)-dione]
6.00 to 8.00 | Cn1c(N[C@H]2CC[C@@H](CO)C2)nc2c1c(=O)n(Cc1cc3ccccc3[nH]1)c(=O)n2C (stereo in doubt) [Example 317, 1-((1H-indol-2-yl)methyl)-8-((1S,3R)-3-(hydroxymethyl)cyclopentylamino)-3,7-dimethyl-1H-purine-2,6(3H,7H)-dione]
5.30 to 6.00 | Cn1c(NCCO)nc2c1c(=O)n(Cc1ccc(Cl)c(Cl)c1)c(=O)n2C [Example 1, 1-(3,4-dichlorobenzyl)-8-((2-hydroxyethyl)amino)-3,7-dimethyl-1H-purine-2,6(3H,7H)-dione]
6.00 to 8.00 | C[C@H](O)CNc1nc2c(c(=O)n(Cc3ccc(Cl)c(Cl)c3)c(=O)n2C)n1C [Example 8, 1-[(3,4-dichlorophenyl)methyl]-8-{[(2S)-2-hydroxypropyl]amino}-3,7-dimethyl-2,3,6,7-tetrahydro-1H-purine-2,6-dione]
